From PMC5696599, “Confirming a Role for α9nAChRs and SK Potassium Channels in Type II Hair Cells of the Turtle Posterior Crista” (Frontiers in Cellular Neuroscience, 2017)
pEC50: −log10 of the molar value.

Target: T1, α9*nAChR (alpha9-containing nicotinic ACh receptor) (Trachemys scripta, UniProt Q3L0X1)
T1 construct: gene CHRNA9; native receptor in type II hair cells, intact split-epithelial posterior crista; read-out through coupled SK potassium current
Test: whole-cell patch clamp of type II hair cells, peak ACh-sensitive outward current, Hill fit
Type: cell-based
Details: agonist; coupled SK current read-out at −17 mV; intact epithelium with acetylcholinesterase and diffusion barriers; pH 7.6; 21–25°C

T1 sequence (Q3L0X1 28-490): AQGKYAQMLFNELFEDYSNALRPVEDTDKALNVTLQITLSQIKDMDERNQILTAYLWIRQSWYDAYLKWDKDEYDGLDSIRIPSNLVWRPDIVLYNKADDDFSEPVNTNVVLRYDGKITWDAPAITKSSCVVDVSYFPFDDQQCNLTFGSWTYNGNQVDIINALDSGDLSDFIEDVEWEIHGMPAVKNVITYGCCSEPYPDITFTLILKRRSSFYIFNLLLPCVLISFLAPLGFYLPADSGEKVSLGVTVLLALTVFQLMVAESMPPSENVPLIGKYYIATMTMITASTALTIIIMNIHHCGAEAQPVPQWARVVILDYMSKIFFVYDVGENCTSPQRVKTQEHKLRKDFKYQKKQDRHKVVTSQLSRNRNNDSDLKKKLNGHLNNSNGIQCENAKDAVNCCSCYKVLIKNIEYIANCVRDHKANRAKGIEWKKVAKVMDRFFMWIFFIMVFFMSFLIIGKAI
T1 sequence (UPI001552A461 25-505 partner): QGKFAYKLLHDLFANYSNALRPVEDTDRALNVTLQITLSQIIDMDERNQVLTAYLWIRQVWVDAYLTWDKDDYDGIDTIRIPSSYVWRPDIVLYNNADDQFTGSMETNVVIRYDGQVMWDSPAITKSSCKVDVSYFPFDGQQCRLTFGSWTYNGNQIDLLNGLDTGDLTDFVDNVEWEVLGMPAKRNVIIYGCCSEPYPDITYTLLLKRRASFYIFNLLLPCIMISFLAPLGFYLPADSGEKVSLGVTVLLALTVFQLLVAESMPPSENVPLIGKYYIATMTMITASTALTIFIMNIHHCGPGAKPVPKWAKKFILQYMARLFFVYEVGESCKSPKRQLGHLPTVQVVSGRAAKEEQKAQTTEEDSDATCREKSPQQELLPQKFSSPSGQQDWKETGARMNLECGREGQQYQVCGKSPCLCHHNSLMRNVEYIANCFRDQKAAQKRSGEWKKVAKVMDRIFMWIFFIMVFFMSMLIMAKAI

Q: With `CC(=O)OCC[N+](C)(C)C` [acetylcholine] as the compound, how does the pEC50 read?
A: Its pEC50 is 4.12.
